Assay [1] deals with Ser-Arg rich splicing factors (SRSF). Description: SRSF phosphorylation in mESCs, immunoblotting with phosphoepitope SR proteins antibody. In kind it is cell-based, mouse. To be noted: 10 μM, 4 h.
Protocol: SRSF phosphorylation, SRPK1, SRPK2, and ERK1/2 levels were determined by immunoblotting. […] Quantification of SRSF phosphorylation (Right). Data represented as mean ± SEM (n = 4). […] Data represented as mean ± SEM (n = 3). One-way ANOVA followed by Tukey’s multiple comparisons test; confidence level 95%.
SDS-PAGE electrophoresis and immunoblotting was performed using standard methods. Cells were lysed in lysis buffer (20 mM Tris [pH 7.4], 150 mM NaCl, 1 mM EDTA, 1% NP-40 [v/v], 0.5% sodium deoxycholate [w/v], 10 mM β-glycerophosphate, 10 mM sodium pyrophosphate, 1 mM NaF, 2 mM Na3VO4, and Roche Complete Protease Inhibitor Cocktail Tablets). Phospho-specific antibodies were used at 1 μg/ml with 10 μg/ml of the corresponding non-phosphopeptide. After secondary antibody incubation, membranes were subjected to chemiluminescence detection with Immobilon Western Chemiluminescent HRP Substrate (Millipore) using a Gel-Doc XR+ System (Bio-Rad) or Infrared detection using a LI-COR Odyssey Clx system.
Assay [2] deals with RNF12 SR-motif. The experiment in a line: RNF12 SR-motif phosphorylation in mESCs by phos-tag immunoblotting. In kind it is cell-based, mouse. To be noted: 10 μM, 4 h. From the text:
RNF12 4xSA = S212A/S214A/S227A/S229A. (B) Rlim^−^/y mESCs were transfected with the indicated RNF12 constructs and lysates treated with λ-phosphatase and analyzed by phos-tag immunoblotting for RNF12. Unphosphorylated recombinant RNF12 is included as a control. […] RNF12 4xSA is included as an unphosphorylated control. […] (F) Phosphorylated peptides detected by mass spectrometry following in vitro phosphorylation of RNF12 by SRPK1. pS, phospho-serine. (G) Autoradiography of RNF12 WT or S212A/S214A/S227A/S229A (4xSA) following a radioactive kinase reaction with SRPK1, SRPK2, or SRPK3. RNF12 protein is detected by Coomassie staining. (H) Srpk1^+/+ and Srpk1^−/− mESCs were transfected with control or SRPK2 siRNA and RNF12 SR-motif phosphorylation analyzed by phos-tag immunoblotting for RNF12. SRPK2, SRPK1, RNF12, and ERK1/2 levels were determined by immunoblotting. Related to Figure S2; Tables S3 and S4.
All compounds were diluted in DMSO and mESCs treated with 10 μM inhibitor for 4 h prior lysis unless indicated otherwise. […] For proteasome inhibition mESCs were treated with 10 μM MG132 (Sigma Aldrich) for 6 h. All chemicals are listed in the Key Resource Table.
Phos-tag analyses were performed by loading protein samples containing 10 mM MnCl2 in 8% polyacrylamide gels containing 50 μM Phos-tag reagent (MRC-PPU reagents and services) and 0.1 mM MnCl2. After electrophoresis, gels were washed three times for 10 mins in Transfer buffer (48 mM Tris, 39 mM Glycine, 20% Methanol) supplemented with 20 mM EDTA. Proteins were then transferred to Nitrocellulose membranes, blocked and probed with the indicated antibodies. All protein signals were quantified using Image Studio (LI-COR Biosciences) or Image Lab software (Bio-Rad). Primary antibodies are listed in the Key Resource Table. […]
SR-motif phosphorylation of HA-immunoprecipitated RNF12 analysed by phos-tag immunoblotting.
HA-RNF12 levels are shown as a control. Fully phosphorylated (4-P) and unphosphorylated (0-P) RNF12 SR-motif is indicated by open (○) and closed (●) circles respectively.
Data are represented as mean ± S.D. (n=3). (C) RNF12 expressing mESCs were treated with 10 […]
immunoblotting. HA-RNF12 and ERK1/2 levels are shown as a control. (D) RNF12 expressing […]
5 h (+ wash-out). RNF12 phosphorylation was analysed via phos-tag immunoblotting. ERK1/2 levels are shown as a loading control. (E) Multiple Srpk1-/- and Srpk2-/- mESC clones were […]
(In western blotting, separated proteins are transferred to a membrane and probed.)

Assay [3] has as its system RNF12 phospho-Ser214. The experiment in a line: RNF12 SR-motif phosphorylation in mESCs, immunoblotting for RNF12 phospho-Ser214 and total RNF12. In kind it is cell-based, mouse. To be noted: 10 μM, 4 h.
Assay [4] deals with Foxp1 exon 16-16b alternative splicing switch. The experiment in a line: Foxp1 exon 16-16b incorporation in mESCs by quantitative RT-PCR. Type of assay: cell-based, mouse. The conditions noted are these: 8 h. Here is the method: SRSF phosphorylation, SRPK1, SRPK2, and ERK1/2 levels were determined by immunoblotting. Expected positions of SRSFs that are not detected are shown in gray. Quantification of SRSF phosphorylation (Right). Data represented as mean ± SEM (n = 4). […] Neuro 2a is a control for exon 16b exclusion in differentiated cells (Bottom). Data represented as mean ± SEM (n = 3). […] Exon 16 inclusion: (^∗∗∗∗) p < 0.0001, Exon 16b inclusion: (^∗) p = 0.0164, p = 0.0485, and p = 0.0489 (left to right). Ratio exon 16b/16: (^∗∗∗∗) p < 0.0001, (^∗∗∗) p = 0.0003. (C) SRPK substrates predicted using ScanProsite and grouped according to UniProt functions. (D) RNF12 phosphorylation sites detected by mass-spectrometry. LZL, leucine-zipper like; NLS, nuclear localization signal; NES, nuclear export signal; RING, RING E3 ubiquitin ligase catalytic domain. (E) CMGC family kinase copy numbers in mESCs determined by quantitative proteomics and represented using Kinoviewer. (F) CMGC kinase (200 mU) phosphorylation of the RNF12 SR-motif in vitro was determined by immunoblotting for RNF12 phospho-Ser214 and total RNF12. […] Normalized RNF12 Ser214 phosphorylation is shown below. Data represented as mean ± SEM (n = 3). […] RNF12 SR-motif phosphorylation was analyzed by immunoblotting for RNF12 phospho-Ser214 and RNF12. SRPK1 and SRPK2 levels are shown as a loading control, Related to Figure S1; Tables S1 and S2.
Total RNA extraction and reverse transcription was performed as described. Quantitative PCR reactions using SsoFast EvaGreen Supermix (Bio-Rad) were performed in a CFX384 real time PCR system (Bio-Rad). Relative RNA expression was calculated through the ΔΔCt method and normalised to Gapdh expression. Data was analysed in Excel (Microsoft) and statistical analysis performed in GraphPad Prism v7.0c software (GraphPad Software Inc.).

For assay [5], the target named is SRPK1 (Homo sapiens, UniProt Q96SB4). Type of assay: biochemical. To be noted: read-out: IC50, inhibition of RNF12 phosphorylation by SRPK1. Here is the method:
Cells were lysed, and 1.5 mg of protein immunoprecipitated with 2 μg of SRPK1 or SRPK2 antibodies (BD Biosciences). Immunoprecipitates were then washed with lysis buffer supplemented with 500 mM NaCl and half of the sample was resuspended in loading buffer. The remainder was subjected to in vitro phosphorylation assay containing 0.5 μg RNF12 and 2 mM ATP in kinase buffer (50 mM Tris-HCl [pH 7.5], 0.1 mM EGTA, 10 mM MgCl2, 2 mM DTT) and incubated at 30°C for 30 min. […] For radioactive in vitro kinase assays, reactions were supplemented with 1 μCi γ-^32P ATP. Reactions were incubated at 30°C for 30 min in presence or absence of inhibitor as indicated and samples subjected to polyacrylamide electrophoresis and immunoblot or Coomassie blue staining and signal detected via ECL, infrared detection or autoradiography.
Supplemental Figure Legends
(Related to Figure 1). (A) Wild-type (WT) mESCs were analysed for protein copy number by absolute quantitative proteomics. […]
Data are represented as mean ± S.E.M. (n=3). […] ND = not detected. (B) Inhibition of RNF12 phosphorylation in vitro by SRPK1 and SRPK2 in the presence of varying concentrations of the indicated SRPK inhibitors was determined by immunoblotting for RNF12 phospho-Ser214 (Left). […] Immunoblots were quantified to generate SRPK inhibitor dose-response curves for inhibition of RNF12 phosphorylation by SRPK1 and SRPK2 in vitro (Right). […]

The test system of assay [6] is RNF12 4xSA-KI mESCs. Description: RNF12 localization by immunofluorescence in RNF12 4xSA-KI mESCs. Type of assay: cell-based, mouse. To be noted: 30 nM, 6 h. The protocol: Figure 3 SRPK Phosphorylation of RNF12 Regulates Nuclear Anchoring and E3 Ubiquitin Ligase Activity (A) RNF12 localization in wild-type knockin (WT-KI), SR-motif phosphorylation site knockin (4xSA-KI), or SR-motif deletion (ΔSR-KI) mESCs was determined by immunofluorescence. Scalebar: 20 μm (Left). Quantification of the Nucleus/cytosol fluorescence intensity ratio (Right). Data represented as mean ± SEM. […] (^∗∗∗∗) p < 0.0001. (B) RNF12 4xSA-KI mESCs were treated with 30 nM leptomycin B for 6 h and RNF12 localization analyzed by immunofluorescence. Scale bar: 20 μm (Top). Quantification of the nucleus/cytosol fluorescence intensity ratio (Bottom). […] (^∗∗∗∗) p < 0.0001. (C) FLAG-tagged SRPK1 and SRPK2 were expressed in mESCs and localization of SRPKs and RNF12 analyzed by immunofluorescence. Scale bar: 20 μm (Left). Quantification of the cytosol/nucleus fluorescence intensity ratio (Right). […] (^∗∗∗∗) p < 0.0001. […] RNF12, REX1 and ERK1/2 were detected by immunoblotting. (^∗) indicates non-specific signal. (E) REX1 levels were analyzed in RNF12 WT-KI, 4xSA-KI, ΔSR-KI, and W576Y-KI mESCs by immunoprecipitation followed by immunoblotting. ERK1/2 levels were detected by immunoblotting. (F) REX1 half-life was determined in RNF12 WT-KI, 4xSA-KI, ΔSR-KI, and W576Y-KI mESCs by immunoblotting. (Top) quantification of HA-REX1 protein levels normalized to ERK1/2 and calculated protein half-life (Bottom). […]

Each structure is given as a SMILES string.

Sequence of SRPK1 (Q96SB4 whole entry): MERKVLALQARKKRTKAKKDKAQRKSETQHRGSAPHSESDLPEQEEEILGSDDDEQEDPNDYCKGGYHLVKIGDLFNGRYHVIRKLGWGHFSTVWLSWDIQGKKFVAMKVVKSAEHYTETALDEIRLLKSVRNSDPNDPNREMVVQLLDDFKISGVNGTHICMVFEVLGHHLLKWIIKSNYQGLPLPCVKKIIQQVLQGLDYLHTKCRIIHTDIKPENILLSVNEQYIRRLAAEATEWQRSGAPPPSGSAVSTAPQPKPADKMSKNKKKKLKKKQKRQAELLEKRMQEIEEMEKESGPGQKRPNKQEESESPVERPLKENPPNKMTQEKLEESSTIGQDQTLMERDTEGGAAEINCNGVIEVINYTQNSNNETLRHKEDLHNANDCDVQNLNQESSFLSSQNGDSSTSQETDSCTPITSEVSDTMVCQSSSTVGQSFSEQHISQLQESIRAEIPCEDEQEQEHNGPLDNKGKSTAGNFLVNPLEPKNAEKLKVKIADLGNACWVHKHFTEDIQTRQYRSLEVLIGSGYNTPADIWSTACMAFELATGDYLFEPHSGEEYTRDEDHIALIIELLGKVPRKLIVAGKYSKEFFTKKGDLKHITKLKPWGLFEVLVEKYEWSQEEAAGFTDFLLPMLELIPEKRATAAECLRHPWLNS

Consider `CN1CCN(C(=O)C(C)(C)c2ccc(C(=O)Nc3cn4cc(-c5ccncc5)ccc4n3)cc2)CC1` [CLK-IN-T3], for which the SRSF phosphorylation result in assay [1] is “widespread, robust inhibition”. Besides, the “RNF12 SR-motif phosphorylation (phos-tag)” value in assay [2] is recorded as “minor effect”. Moreover, the “RNF12 phospho-Ser214/total ratio” value in assay [3] was “little impact”. Moreover, the “Foxp1 exon 16b-exon 16 inclusion” value in assay [4] (1 μM) was “promotes exon 16b inclusion while suppressing inclusion of exon 16”.

On to `COc1ccc2c(C)nc(Nc3nc(C)c(C)c(=O)[nH]3)nc2c1` [Madrasin], for which the “Foxp1 exon 16b-exon 16 inclusion” value in assay [4] (10 μM) is “promotes inclusion of exon 16b over exon 16”. On to `O=C1NC(=NCc2cccs2)S/C1=C\c1ccc2ncccc2c1` [RO-3306], for which, in assay [2], the “RNF12 SR-motif phosphorylation (phos-tag)” value is “little impact”. The “RNF12 phospho-Ser214/total ratio” value in assay [3] was “some effect”.

On to `O=C(Nc1cc(C(F)(F)F)ccc1N1CCN(Cc2ccccn2)CC1)c1ccc(-c2ccncc2)o1` [SPHINX31], for which, in assay [2], the “RNF12 SR-motif phosphorylation (phos-tag)” value was “minor effect”.

One may read the IC50 as the concentration at which inhibition is half-maximal. With `O=C(Nc1cc(C(F)(F)F)ccc1N1CCCCC1)c1ccncc1` [SRPIN340], the IC50 in assay [5] was determined as 4.7 µM. Regarding `CN1CC[C@H](c2c(O)cc(O)c3c(=O)cc(-c4ccccc4Cl)oc23)[C@H](O)C1` [flavopiridol], the “RNF12 SR-motif phosphorylation (phos-tag)” value in assay [2] is “little impact”. In assay [3], the “RNF12 phospho-Ser214/total ratio” value is listed as “some effect”. Take `CCC(=C/[C@H](C)C/C=C/C(C)=C/[C@@H](C)C(=O)[C@@H](C)[C@H](O)[C@@H](C)C/C(C)=C/C(=O)O)/C=C/[C@@H]1OC(=O)C=C[C@@H]1C` [leptomycin B]: in assay [6], the “RNF12 4xSA localization” value is “primarily nuclear” and the “nucleus/cytosol ratio of RNF12 4xSA (fluorescence intensity, mean)” value was 4.08.

The values are drawn from article PMC7725506, “Functional Diversification of SRSF Protein Kinase to Control Ubiquitin-Dependent Neurodevelopmental Signaling” (Developmental Cell, 2020).
